One series relates to IL-1β. In words: Inflammatory factor experiment B: IL-1β in knee synovial tissue (ELISA). Type of series: in vivo, SD rats. Conditions: for inhibition in vivo at 0.6 mg/kg: Rattus norvegicus, po, 48 h, read-out: IL-1β percentage decrease %. Background: An ELISA detects its analyte on a solid surface through an enzyme-linked reagent.
The test system of series [1] is gouty arthritis rats (sodium urate, right ankle and knee joint cavities). In words: Pharmacodynamics experiment B on gouty arthritis rats: gait score. Type of series: in vivo, SD rats. Conditions: for Gait Score: dose 0.6 mg/kg gavage, mean. The method, then:
(§1) Compounds 12, 16, 19, 30, 34, 36, 38, 40, 44, 48, 49, 52, 58, 69, 83, 98, 102, 119, 121, and 122 were prepared by grinding with 0.5% CMC-Na prior to administration and formulated into suspensions of appropriate concentration (0.12 mg/mL) for gavage, with an administered dose of 0.5 mL/100 g.
(§2) 240 SD rats, males, were acclimatized for one week and weighed 180-220 g. […] The dose of each compound group was 0.6 mg/kg. The compounds in each group were prepared into the corresponding concentration suspension, and the volume of administration was 10 mL/kg.
(§3) 250 mg of sodium urate were added to 9 mL of saline, and 1 mL of Tween-80 solution was added, the resulting mixture was heated and stirred to formulate 10 mL of sodium urate solution. The rats were grasped and fixed, and 0.2 mL of sodium urate solution was injected into the right ankle and knee joint cavities respectively to establish gouty arthritis rat model.
(§4) Before modeling, positive drug and tested compounds were pre-administered for 7 days, once a day, and modeling was performed on day 8, and drug administration by gavage continued for 3 days after modeling.
Gait was scored according to the modified gait grading criteria introduced by Coderre et al. The gait of each rat was observed before and 2 h, 4 h, 8 h, 10 h, 24 h and 48 h after modeling and graded scoring was performed. The gait grading criteria were as follows: 0 point, normal walking; 1 point, slight lameness, the lower limbs were slightly bent; 2 points: moderate lameness, the lower limbs just touched the ground; 3 points, severe lameness, the lower limbs left the ground, and walked on three feet. The mean score of each group was calculated and compared with that of the model group.
(§5) Each experimental data was expressed as the mean, and intergroup comparisons were examined for significance using the ANOVA-Dunnett T-test, with P<0.05 as the significance indicator.

The next series concerns IL-6. In words: Inflammatory factor experiment B: IL-6 in knee synovial tissue (ELISA). Type of series: in vivo, SD rats. To be noted: Rattus norvegicus, po, 48 h, read-out: IL-6 percentage decrease %.
Another series relates to TNF-α. The experiment in a line: Inflammatory factor experiment B: TNF-α in knee synovial tissue (ELISA). Type of series: in vivo, SD rats. To be noted: for inhibition in vivo at 0.6 mg/kg: Rattus norvegicus, po, 48 h, read-out: TNF-α percentage decrease %.
Series [2] has as its system gouty arthritis rats (sodium urate, right ankle and knee joint cavities). The experiment in a line: Pharmacodynamics experiment B on gouty arthritis rats: ankle swelling rate. To be noted: for change in vivo at 0.6 mg/kg: Rattus norvegicus, po, read-out: Swelling rate (ankle); for Swelling rate (ankle): dose 0.6 mg/kg gavage. In kind it is in vivo, SD rats. Here is the method:
as §1, §2, §3, §4
Before modeling and 2 h, 4 h, 8 h, 10 h, 24 h and 48 h after modeling, the circumference of the right ankle joint was measured using a soft ruler or the volume change at the ankle was measured (volumetric method), and the swelling degree and swelling rate of ankle joint were calculated:
Swelling degree (mm)=measured circumference (mm)−baseline circumference (mm)
Swelling rate (%)=swelling degree (mm)/baseline circumference (mm)×100%
as §5

A short description of series [3]: In vivo pharmacokinetics in SD rats. Here is the method:
Compound stock solution preparation: an appropriate amount of solid powder of the compounds were weighed separately, a certain amount of DMSO was added and 20 mg/mL of stock solution was obtained under vortex ultrasound.
Preparation of test compound for gavage: an appropriate amount of compound stock solution was taken by pipette, a certain amount of Solutol HS15 solution was added, the mixture was vortexed for 1 minute, then a certain amount of saline was added, and 1 mg/mL of solution was obtained after mixing well.
Preparation of test compounds for intravenous injection: an appropriate amount of compound stock solution was taken by pipette separately, a certain amount of Solutol HS15 solution was added, the mixture was vortexed for 1 minute, then a certain amount of physiological saline was added and a solution of 0.5 mg/mL was obtained after mixing well.
The animals were fasted overnight before administration by gavage, and food was given 4 hours after administration, during which they were free to drink. Two groups were set for each test compound, intravenous injection group and oral administration group, and the dose and mode of administration were shown in Table 12 below.
The blood samples were centrifuged at 4° C. for 5 min at 2,000 g to separate the plasma. The plasma samples were analyzed by LC/MS/MS to detect the concentration of each test compound in the plasma samples.
The parameters related to the […] were obtained by calculations with WinNonlin® Professional software.

[4] abbreviates: Intravenous injection - 1 mg/kg.
Setting [5] is: synovial tissue of knee joints, 48 h after modeling, dose 0.6 mg/kg.

Like-named read-outs stand apart in the source and are kept apart here. Marks after values point to notes of the source that are not given here.

Turning to `COc1cc2c(c(OC)c1OC)-c1ccc(=O)c(O[C@H]3CCOC3)cc1[C@@H](NC(C)=O)CC2` [Compound 19, N—{(S)-1,2,3-trimethoxy-10-oxo-9-{[(S)-tetrahydrofuran-3-yl]oxy}-5,6,7,10-tetrahydrobenzo[a]heptalen-7-yl}acetamide], the inhibition in vivo at 0.6 mg/kg was 81.5% in the series with IL-1β, 98.1% with IL-6 and 84.7% in the series with TNF-α. Besides, the “Gait Score” value in series [1] (2 h) is on record as 0.0; in series [1] (4 h) it was 0; in series [1] (8 h), 0**; in series [1] (10 h), 0**; in series [1] (24 h), 0.2; in series [1] (48 h), 0.1. The “Gait versus model group, in words” value in series [1] (compounds 0.6 mg/kg, colchicine 0.6 and 1.2 mg/kg) is recorded as “significant improvement in gait occurred at different time points”. Besides, the change in vivo at 0.6 mg/kg in series [2] (2 h) was determined as 8.77%; in series [2] (4 h) it was 10.9%; in series [2] (8 h), 17.1%; in series [2] (10 h) it was 14.1%; in series [2] (24 h) it was 19.4%; in series [2] (48 h), 7.77%.

In the case of `COc1cc2c(c(OC)c1OC)-c1ccc(C(=O)N3CCC[C@H]3C#N)c(=O)cc1[C@@H](NC(C)=O)CC2` [Compound 60, N—{(S)-10-[(S)-2-cyanopyrrolidin-1-carbonyl]-1,2,3-trimethoxy-9-oxo-5,6,7,9-tetrahydrobenzo[a]heptalen-7-yl}acetamide], the inhibition in vivo at 0.6 mg/kg is 76.1% in the series with IL-1β, 59.5% in the series on IL-6 and 85.8% with TNF-α.

Take `COc1cc2c(c(OC)c1OC)-c1ccc(C(=O)N3CCCC3)c(=O)cc1[C@@H](NC(C)=O)CC2` [Compound 61, (S)—N-{1,2,3-trimethoxy-9-oxo-10-(pyrrolidin-1-carbonyl)-5,6,7,9-tetrahydrobenzo[a]heptalen-7-yl}acetamide]: the figures for the inhibition in vivo at 0.6 mg/kg with IL-1β, in the series on IL-6 and in the series with TNF-α were 97.2%, 52.5% and 71.2%, respectively.

On to `CNC(=O)N[C@H]1CCc2cc(OC)c(OC)c(OC)c2-c2ccc(C(=O)NC)c(=O)cc21` [Compound 81, (S)-1,2,3-trimethoxy-N-methyl-7-(3-methylureido)-9-oxo-5,6,7,9-tetrahydrobenzo[a]heptalen-10-carboxamide], for which the inhibition in vivo at 0.6 mg/kg amounted to 86.6% in the series with IL-1β, 70.6% in the series on IL-6 and 78% in the series on TNF-α.

For `COc1cc2c(c(OC)c1OC)-c1ccc(-n3cnnn3)c(=O)cc1[C@@H](NC(C)=O)CC2` [Compound 95, (S)—N-{1,2,3-trimethoxy-9-oxo-10-(1H-tetrazol-1-yl)-5,6,7,9-tetrahydrobenzo[a]heptalen-7-yl}acetamide], the inhibition in vivo at 0.6 mg/kg was 40.4% in the series with IL-1β, 109% in the series with IL-6 and 70% with TNF-α.

On to `COc1cc2c(c(OC)c1OC)-c1ccc(-n3ccnc3)c(=O)cc1[C@@H](NC(C)=O)CC2` [Compound 97, (S)—N-{10-(1H-imidazol-1-yl)-1,2,3-trimethoxy-9-oxo-5,6,7,9-tetrahydrobenzo[a]heptalen-7-yl}acetamide], for which the inhibition in vivo at 0.6 mg/kg in the series on IL-1β stood at 20.2%; in the series with IL-6, 97.8%; with TNF-α, 92%.

On to `COc1cc2c(c(OC)c1OC)-c1ccc(-n3ccnn3)c(=O)cc1[C@@H](NC(C)=O)CC2` [Compound 99, (S)—N-(1,2,3-trimethoxy-9-oxo-10-(1H-1,2,3-triazol-1-yl)-5,6,7,9-tetrahydrobenzo[a]heptalen-7-yl)acetamide], for which the inhibition in vivo at 0.6 mg/kg in the series with IL-1β worked out at 66.4%; in the series on IL-6, 79.6%; in the series with TNF-α, 91.7%.

As for `COc1cc2c(c(OC)c1OC)-c1ccc(-n3nccn3)c(=O)cc1[C@@H](NC(C)=O)CC2` [Compound 100, (S)—N-(1,2,3-trimethoxy-9-oxo-10-(2H-1,2,3-triazol-2-yl)-5,6,7,9-tetrahydrobenzo[a]heptalen-7-yl)acetamide], the results for the inhibition in vivo at 0.6 mg/kg with IL-1β, in the series on IL-6 and with TNF-α were 65.2%, 169% and 120%, respectively.

As to `COC(=O)c1ccc2c(cc1=O)[C@@H](N1CCCCC1=O)CCc1cc(OC)c(OC)c(OC)c1-2` [Compound 108, methyl (S)-1,2,3-trimethoxy-9-oxo-7-(2-oxopiperidin-1-yl)-5,6,7,9-tetrahydrobenzo[a]heptalen-10-carboxylate], the inhibition in vivo at 0.6 mg/kg is 92.7% in the series on IL-1β, 207% in the series on IL-6 and 104% with TNF-α.

Regarding `CCNS(=O)(=O)N[C@H]1CCc2cc(OC)c(OC)c(OC)c2-c2ccc(C(=O)OC)c(=O)cc21` [Compound 112], the inhibition in vivo at 0.6 mg/kg is 92% with IL-1β, 165% in the series on IL-6 and 97.8% with TNF-α.

Consider `[2H]C([2H])([2H])Oc1c(OC)cc2c(c1OC)-c1ccc(C(=O)NC)c(=O)cc1[C@@H](NC(C)=O)CC2` [Compound 122, (S)-7-acetamido-1,3-dimethoxy-2-trideutero-methoxy-N-methyl-9-oxo-5,6,7,9-tetrahydrobenzo[a]heptalen-10-carboxamide], for which the AUCINF in series [3] (Gavage - 10 mg/kg) came to 3129 ng·h/mL; in series [3] (setting [4]), 624 ng·h/mL. Further, the peak concentration (Cmax) – broadly, the peak of the concentration-time curve – in series [3] (Gavage - 10 mg/kg) stood at 1153 ng/mL. Also, the MRTINF was found to be 2.47 h in series [3] (Gavage - 10 mg/kg) and 1.34 h in series [3] (setting [4]). Besides, the Tmax (as a rule, the time at which the peak concentration occurs) in series [3] (Gavage - 10 mg/kg) is listed as 0.250 h. The figures for the t1/2 in series [3] (Gavage - 10 mg/kg) and in series [3] (setting [4]) were 1.79 h and 1.57 h, respectively. In addition, the F in series [3] (Gavage - 10 mg/kg, calculated by AUCINF) is 50.1%. For the same compound, the CL in series [3] (setting [4]) is 27.2 mL/min/kg. The compound also registered a VSS in series [3] (setting [4]) of 1.99 L/kg. For the same compound, the “IL-1β percentage decrease %” value in the series on IL-1β (setting [5]) is listed as 86.87%. Further, the “Gait Score” value in series [1] (0 h) is given as 0; in series [1] (2 h), 0; in series [1] (4 h) it was 0.2; in series [1] (8 h), 0.1; in series [1] (10 h), 0.2; in series [1] (24 h) it was 0.1. Further, the “Gait Score” value in series [1] (48 h) is on record as 0. In addition, the “TNF-α percentage decrease %” value in the series with TNF-α (setting [5]) stood at 98.89%. Moreover, the “Swelling rate (ankle)” value in series [2] (2 h) was 7.9%**; in series [2] (4 h), 12.1%**; in series [2] (8 h) it was 15.8%**; in series [2] (10 h), 15.3%**; in series [2] (24 h), 12.5%**; in series [2] (48 h), 4.7%**.

The values above are taken from patent US20250129012A1, “ANTI-INFLAMMATORY AND ANALGESIC COMPOUNDS AND USE THEREOF” (JIANGSU ATOM BIOSCIENCE AND PHARMACEUTICAL CO., LTD., priority 2021, published 2025).
